Reference: US8088777B2, “Urea derivative” (Shionogi & Co., Ltd., priority 2006, dated 2012)

molecular target: T1, human NPY Y5 receptor (Homo sapiens, UniProt Q15761); experiment: Affinity for NPY Y5 receptor: inhibition of [125I] peptide YY binding to membranes of CHO cells expressing NPY Y5 receptor; settings: [125I] peptide YY 60 pM, 25° C., 2 hours, read-out: 50% inhibitory concentration of the test compound against the specific peptide YY binding (IC50 value)
T1 construct: expressed in transfected cells; membranes used
T1 sequence (Q15761 1-445): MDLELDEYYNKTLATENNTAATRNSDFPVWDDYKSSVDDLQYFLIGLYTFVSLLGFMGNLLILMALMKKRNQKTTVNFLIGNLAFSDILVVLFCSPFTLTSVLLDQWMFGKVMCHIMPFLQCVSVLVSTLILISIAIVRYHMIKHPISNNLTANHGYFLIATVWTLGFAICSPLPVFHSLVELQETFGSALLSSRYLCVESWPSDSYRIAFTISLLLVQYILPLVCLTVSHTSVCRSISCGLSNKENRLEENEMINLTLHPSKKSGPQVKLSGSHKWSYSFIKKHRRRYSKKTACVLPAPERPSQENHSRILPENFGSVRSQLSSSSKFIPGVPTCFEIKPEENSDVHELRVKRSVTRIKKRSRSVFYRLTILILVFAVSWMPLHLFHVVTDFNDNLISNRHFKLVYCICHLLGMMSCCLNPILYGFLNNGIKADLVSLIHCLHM
Text: cDNA sequence encoding a human NPY Y5 receptor (WO96/16542) was cloned in a vector pME18S (Takebe et al. Mol. Cell. Biol. 8, 8957). The obtained expression vector was transfected into CHO cells as a host by using Lipofect AMINE reagent (Trademark, Gibco BRL Co., Ltd.) according to the instruction […] manual. The cells that stably express NPY Y5 receptor were obtained.
The membranes prepared from the CHO cells expressing NPY Y5 receptor, the compound of the present invention and 30,000 cpm [^125I] peptide YY (60 pM of final concentration: Amersham) were incubated in the assay buffer (20 mM HEPES-Hanks buffer containing 0.1% bovine serum albumin, pH 7.4) at 25° C. for 2 hours, and then the membrane was collected by filtering the mixture through a glassfilter (GF/C) presoaked with 1% polyethyleneimine. After washing with 50 mM Tris-HCl buffer (pH 7.4), radioactivity retained on the filters was quantified with a gamma counter. Nonspecific binding was defined as the amount of radioactivity bound to the membranes after incubation in the presence of 200 nM of peptide YY. The 50% inhibitory concentration of the test compound against the specific peptide YY binding (IC50 value) was calculated (Inui, A. et al. Endocrinology 131, 2090-2096 (1992)).

Question: For CC(C)n1c(=O)oc2cc(NC(=O)N[C@H]3CC[C@H](NS(=O)(=O)C(C)C)CC3)ccc21 [Example II-14], which IC50 is on record?
Answer: 0.32 nM

Question: CCS(=O)(=O)N(C)C1CCC(N(C)C(=O)Nc2ccc3c(c2)oc(=O)n3C(C)C)CC1 (stereo not drawn) [Example II-2] was tested. Which IC50 did it give?
Answer: 1.85 nM

Question: CC(C)n1c(=O)oc2cc(NC(=O)N[C@H]3CC[C@H](NS(=O)(=O)C(C)(C)C)CC3)ccc21 [Example II-12] was tested. Which IC50 did it give?
Answer: 0.55 nM
